Assay results from patent US20030180827A1, “Highly sensitive and continuous protein tyrosine phosphatase test using 6,8-difluoro-4-methylumbelliferyl phosphate” (Aventis Pharma Deutschland Gmbh., priority 2002, published 2003).

Columns and labels:
Assay type in all cases: biochemical
PTP1B [1] = biological target: T1, PTP1B (Homo sapiens, UniProt P18031); assay: pNPP test method; conditions: for comparison
T1 sequence (P18031 1-435): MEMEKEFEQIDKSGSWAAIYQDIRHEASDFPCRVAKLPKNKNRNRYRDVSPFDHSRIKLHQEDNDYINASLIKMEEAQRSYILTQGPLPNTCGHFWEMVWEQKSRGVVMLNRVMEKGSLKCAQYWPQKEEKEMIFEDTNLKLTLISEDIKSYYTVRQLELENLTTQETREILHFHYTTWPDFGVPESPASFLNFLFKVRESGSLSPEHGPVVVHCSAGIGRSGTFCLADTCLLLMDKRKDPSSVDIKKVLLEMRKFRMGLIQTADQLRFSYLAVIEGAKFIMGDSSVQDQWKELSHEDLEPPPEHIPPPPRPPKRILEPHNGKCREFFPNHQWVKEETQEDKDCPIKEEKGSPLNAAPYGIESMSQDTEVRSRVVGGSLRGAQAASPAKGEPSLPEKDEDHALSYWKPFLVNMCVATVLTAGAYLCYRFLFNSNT
Text: The prior art discloses methods for measuring the activity of a protein tyrosine phosphatase using the substrate p-nitrophenyl phosphate (“p-NPP”). These methods are to be found in standard biochemical manuals such as Current Protocols in Protein Science: John E. Coligan (ed.), Ben M. Dunn (ed.), Hidde L. Ploegh (ed.), David W. Speicher (ed.), Paul T. Wingfield (ed.); SBN: 0-471-11184-8; loose-leaf pages, continuously updated; published by John Wiley & Sons. In these methods, the action of a phosphatase forms p-nitrophenol from the p-NPP. The p-nitrophenol thus produced can be measured photometrically on the basis of its intense yellow color in the alkaline range.
However, this test method has some unfavorable features. […] The increase in the pH leads to the color of the resulting p-nitrophenol changing to yellow, the absorption of which is determined photometrically and is a measure of the quantity of p-nitrophenol which is present. […]
The test for determining the inhibitory effect of the active compound 2,2-dioxo-2,3dihydro-2,6-benzo[1,2,3]oxathiazol-5-yl)-(9-ethyl-9H-carbazol-3-ylmethyl)amine using the DiFMUP test takes place in a black microtiter plate at a temperature of 37° C. […] The measure of the enzyme activity is the increase in fluorescence, which can be depicted graphically (FIG. 1). […]

[2] = biological target: T2, protein tyrosine phosphatase PTP1B (Homo sapiens, UniProt P18031); assay: DiFMUP test, inhibition of PTP1B; conditions: DiFMUP substrate, 100 ng PTP1B/ml, pH 6.9, 37° C.; read-out: inhibitor concentration that reduces the activity of the PTP1B by half (IC-50)
T2 sequence (P18031 1-435): T1 sequence (P18031 1-435)
Protocol: (§1) The test for determining the inhibitory effect of the active compound 2,2-dioxo-2,3dihydro-2,6-benzo[1,2,3]oxathiazol-5-yl)-(9-ethyl-9H-carbazol-3-ylmethyl)amine using the DiFMUP test takes place in a black microtiter plate at a temperature of 37° C. 120 μl volumes of reaction buffer are provided, with the buffer containing the following components: 100 ng of protein tyrosine phosphatase PTP1B/ml; 50 mM Hepes, pH 6.9; 150 mM NaCl; 1 mM EDTA; 2 mM DTT. To this are added 15 μl of the inhibitor solution to be tested, at a variety of concentrations. The phosphatase reaction is started by adding 15 μl of 1 mM DiFMUP solution and the fluorescence (measured in RFU) is measured, at time intervals of 30 seconds and over a period of 15 minutes, in a fluorescence microtiter plate photometer at 358/455 nm. The measure of the enzyme activity is the increase in fluorescence, which can be depicted graphically (FIG. 1). The reduction in enzymic activity which is obtained depends on the concentration of inhibitor employed. The inhibitor concentration at which the active compound 2,2-dioxo-2,3-dihydro-2,6-benzo[1,2,3]oxathiazol-5-yl)-(9-ethyl-9H-carbazol-3-ylmethyl)amine reduces the activity of the PTP1B by half (IC-50) can be determined to be 3.8 μM. The IC-50 values using the pNPP test method and the malachite green phosphopeptide test were determined for comparison. […]

PTP1B [3] = biological target: T1, PTP1B; assay: malachite green phosphopeptide test; conditions: malachite green phosphopeptide test method, for comparison
Text: The malachite green phosphopeptide test has been described as another method for measuring the activity of protein tyrosine phosphatases. Martin et al. (1985) Journal of Biological Chemistry, 260, pp. 14932 and Harder et al. (1994) Biochemical Journal, 298, pp. 395. In this method, the inorganic phosphate which the phosphatase has released from its substrate peptide is detected photometrically using the malachite green reagent. […]
as §1, with “120 μl volumes of reaction buffer are provided, with the buffer containing the following components: 100 ng of protein tyrosine phosphatase PTP1B/ml; 50 mM Hepes, pH 6.9; 150 mM NaCl; 1 mM EDTA; 2 mM DTT. To this are added 15 μl of the inhibitor solution to be tested, at a variety of concentrations.” left out, “The reduction in enzymic activity which is obtained depends on the concentration of inhibitor employed.” left out

[4] = biological target: T2, protein tyrosine phosphatase PTP1B; assay: Concentration dependence of the cleavage of DiFMUP by PTP1B (Lineweaver-Burk analysis); conditions: DiFMUP as substrate 0-200 μM, 100 ng PTP1b/ml, pH 6.9, 37° C.
Protocol: The reaction takes place in a black microtiter plate at a temperature of 37° C. 135 μl of reaction buffer are provided in each case, with this buffer containing the following components: 100 ng of protein tyrosine phosphatase PTP1b/ml; 50 mM Hepes, pH 6.9; 150 mM NaCl; 1 mM EDTA; 2 mM DTT. The phosphatase reaction is started by adding 15 μl of DiFMUP solution, which contains the substrate at 10 times the final concentration which is desired in the test mixture (FIG. 2: 0-200 μM), and the fluorescence is measured, at time intervals of 30 seconds for a period of 15 minutes, in a fluorescence microtiter plate photometer at 358/455 nm. The measure of the enzyme activity is the increase in fluorescence (measured in RFU) in dependence on the DiFMUP concentration, which can be depicted graphically (FIG. 2). This graph can subsequently be used to determine the kinetic constants of the enzyme reaction by means of a Lineweaver-Burk analysis. […] This analysis can also be carried out in an analogous manner for other tyrosine phosphatases.

| Structure (SMILES) | IC50 (PTP1B [1]) [µM] | IC50 [2] [µM] | IC50 (PTP1B [3]) [µM] | Km [4] [µM] | Vmax [4] [RFU sec-1 mg-1] |
| --- | --- | --- | --- | --- | --- |
| CCn1c2ccccc2c2cc(CNc3ccc4c(c3)NS(=O)(=O)O4)ccc21 [2,2-dioxo-2,3-dihydro-2,6-benzo[1,2,3]oxathiazol-5-yl)-(9-ethyl-9H-carbazol-3-ylmethyl)amine] | 5.1 | 3.8 | 3.9 | – | – |
| Cc1cc(=O)oc2c(F)c(OP(=O)(O)O)c(F)cc12 [DiFMUP, 6,8-difluoro-4-methylumbelliferyl phosphate] | – | – | – | 19 | 388000 |
